Experimental data: PMC8080777, “Discovery, optimization, and evaluation of non-bile acid FXR/TGR5 dual agonists” (Scientific Reports, 2021)

Experiments:
FXR = biological target: T1, FXR (Homo sapiens, UniProt Q96RI1); experiment: CHO cell-based FXR luciferase reporter assay (Indigo Biosciences); details: for FXR Efficacy (%) (1 µM) / FXR Efficacy (%) (0.1 µM) / FXR Efficacy (%) (10 µM): % vs OCA 1 µM as 100%
T1 construct: host or cells: CHO cells
T1 sequence (Q96RI1 1-486): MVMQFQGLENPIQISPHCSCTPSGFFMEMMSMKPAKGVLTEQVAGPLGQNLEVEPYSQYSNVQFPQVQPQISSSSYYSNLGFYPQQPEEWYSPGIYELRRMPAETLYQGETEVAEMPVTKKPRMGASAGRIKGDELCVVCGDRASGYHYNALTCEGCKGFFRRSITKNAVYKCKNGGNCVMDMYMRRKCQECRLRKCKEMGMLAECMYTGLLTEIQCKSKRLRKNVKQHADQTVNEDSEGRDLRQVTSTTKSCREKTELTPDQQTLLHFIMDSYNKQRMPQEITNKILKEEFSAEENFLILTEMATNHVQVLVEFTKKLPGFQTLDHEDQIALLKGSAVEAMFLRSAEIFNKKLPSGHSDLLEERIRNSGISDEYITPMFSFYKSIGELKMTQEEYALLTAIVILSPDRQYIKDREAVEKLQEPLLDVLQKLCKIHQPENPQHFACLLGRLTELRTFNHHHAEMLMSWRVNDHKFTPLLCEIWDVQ
Protocol: To evaluate direct agonist activities against FXR, test compounds were evaluated using a CHO cell-based FXR assay by Indigo Biosciences (State College, PA), in which cells were transfected with an FXR luciferase reporter system.
To directly evaluate the in vitro agonist activity towards FXR, test compounds were evaluated in CHO cells transfected with FXR responsive luciferase reporter (Nuclear Receptor & In Vitro Toxicology Solutions, Indigo Biosciences, State College, PA, USA). […] Each compound was tested in duplicate, and the average value was reported[35],[36].
(§1) The cell recovery medium (CRM, Human Farnesoid X Receptor (NR1H4, FXR reporter assay system, Indigo Biosciences, State College, PA, USA) and compound screening medium (CSM, Human Farnesoid X Receptor (NR1H4, FXR reporter assay system, Indigo Biosciences, State College, PA, USA) were removed from the freezer and thawed in a water bath at 37 °C. Test compounds were dissolved in dimethyl sulfoxide (DMSO, FUJIFILM Wako Pure Chemical Corporation, Osaka city, Osaka, Japan), and the treatment medium was prepared and diluted with CSM to achieve a final concentration of 0.2% total DMSO. The reporter cells were thawed by transferring 3.3 mL CRM at 37 °C into tubes of frozen cells. The tube containing reporter cells was recapped, and it was immediately place in a 37 °C water bath for 5 min. The reporter cells were gently inverted several times, and 100 µL cell suspension was dispensed into each well. One hundred microliters of treatment media was added into wells. Subsequently, the assay plate was kept at 37 °C, and it was incubated with 5% CO2 for 22 h. To prepare luciferase detection reagent (LDR), the detection substrate was gently mixed with detection buffer, media contents were removed from each well, and 100 µL LDR was added to each well of the assay plate. The assay plate was allowed to rest at room temperature for 5 min, and luminescence was quantified using the Multi-Mode Microplate Reader (FlexStation 3, Molecular Devices Inc., San Jose, CA, USA)[36].
S4. In vitro, in vivo assay, and selectvity.
To directly evaluate the in vitro agonist activity towards FXR, test compounds were evaluated in CHO cells transfected with FXR responsive luciferase reporter (Nuclear Receptor & In Vitro Toxicology Solutions, Indigo Biosciences, State College, PA, USA). Cells were incubated with […]
(FlexStation 3, Molecular Devices Inc., San Jose, CA, USA). Efficacies are reported relative to […]
reporter on of 1 µM. Each compound was tested in duplicate, and the average value was […]
as §1, with “sulfoxide (DMSO ,” for “sulfoxide (DMSO,”, “Osaka, Jap an),” for “Osaka, Japan),”, “a 37°C” for “a 37 °C”, “5% CO 2” for “5% CO2”, “using […]” for “using the Multi-Mode Microplate Reader (FlexStation 3, Molecular Devices Inc., San Jose, CA, USA)[36].”

TGR5 = biological target: T2, TGR5 (Homo sapiens, UniProt Q8TDU6); experiment: TGR5 cAMP assay in CHO cells transfected with TGR5 (cAMP Hunter eXpress, Discover X); assay type: cell-based; details: for TGR5 Efficacy (%) (10 µM) / TGR5 Efficacy (%) (1 µM): % vs INT-767 10 µM as 100%
T2 construct: host or cells: CHO cells
T2 sequence (Q8TDU6 1-330): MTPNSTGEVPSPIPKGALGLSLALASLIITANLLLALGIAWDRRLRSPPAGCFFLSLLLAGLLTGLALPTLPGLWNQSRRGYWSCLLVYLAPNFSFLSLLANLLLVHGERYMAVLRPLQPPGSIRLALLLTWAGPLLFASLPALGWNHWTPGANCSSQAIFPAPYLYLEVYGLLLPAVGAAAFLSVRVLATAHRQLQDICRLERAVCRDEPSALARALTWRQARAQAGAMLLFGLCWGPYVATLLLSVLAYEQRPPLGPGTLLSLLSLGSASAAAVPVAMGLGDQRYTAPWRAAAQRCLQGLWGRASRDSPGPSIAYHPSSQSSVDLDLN
Protocol: TGR5 agonist activity was evaluated by transfecting CHO cells with TGR5 using the Discover X expression kit (cAMP Hunter eXpress GPCR Assay, Discover X Fremont, CA). Cells were incubated with test compounds for 0.5 h, and intracellular cAMP levels were measured using the multi-mode microplate reader.
(§2) TGR5 agonist activity was evaluated by transfecting CHO cells with TGR5 using the Discover X expression kit (cAMP Hunter eXpress Assay Kit, Discover X Fremont, CA, USA). Cells were incubated with the test compounds for 0.5 h, and intracellular cAMP levels were measured using Multi-Mode Microplate Reader (FlexStation 3, Molecular Devices Inc., San Jose, CA, USA).
Each compound was tested at concentrations of 10, 1, or 0.1 µM in duplicate (n = 2), with the average value shown.
S4. In vitro, in vivo assay, and selectvity. […]
In vitro TGR5 agonist assay protocol
as §2
Each compound was tested at concentrations of 10, 1, or 0.1 µM in duplicate (n=2), with the […]
parameter logistic equation, Y = min + (max - min)/(1 + 10^(n * (log10(EC50) - log10(conc)))), in […]

Cc1cnccc1C(=O)N(Cc1ccc(-c2ccc(N(C)C)cc2)cc1)c1cc(Cl)ccc1C [Compound 13p]
FXR Efficacy (%) (1 µM) (FXR): 1.9%
TGR5 agonist activity (in words) (TGR5): good potency against TGR5
TGR5 Efficacy (%) (10 µM) (TGR5): 93.4%

Cc1cnccc1C(=O)N(Cc1ccc(-c2ccc(N(C)C)cc2)cc1)c1ccc(F)cc1C [Compound 13e]
FXR Efficacy (%) (1 µM) (FXR): 2.0%
TGR5 agonist activity (in words) (TGR5): strong TGR5 agonist activity
TGR5 Efficacy (%) (10 µM) (TGR5): 87.5%

COc1cnccc1C(=O)N(Cc1ccc(-c2ccc(N(C)C)cc2)cc1)c1cc(Cl)cc(Cl)c1 [Compound 13aa]
FXR agonist activity (in words) (FXR): weak dual agonist activity
FXR Efficacy (%) (1 µM) (FXR): 68.6%
TGR5 agonist activity (in words) (TGR5): weak dual agonist activity
TGR5 Efficacy (%) (10 µM) (TGR5): 21.5%

Cc1cnccc1C(=O)N(Cc1ccc(-c2ccc(N(C)C)cc2)cc1)c1cccc(-c2cnn(C(C)C)c2)c1F [Compound 13t]
FXR agonist activity (in words) (FXR): strong FXR agonist activities
FXR Efficacy (%) (1 µM) (FXR): 92.6%
TGR5 Efficacy (%) (10 µM) (TGR5): 8.3%

COc1ccc(C(=O)N(Cc2ccc(-c3ccc(N(C)C)cc3)cc2)c2cc(Cl)cc(Cl)c2)c(Cl)c1 [Compound 13ag]
FXR agonist activity (in words) (FXR): strong FXR activities
FXR Efficacy (%) (1 µM) (FXR): 136.5%
TGR5 agonist activity (in words) (TGR5): significantly low potency against TGR5
TGR5 Efficacy (%) (10 µM) (TGR5): 1.1%

CN(C)c1ccc(-c2ccc(CN(C(=O)c3ccncc3C(F)(F)F)c3cc(Cl)cc(Cl)c3)cc2)cc1 [Compound 13z]
FXR Efficacy (%) (1 µM) (FXR): 10.6%
TGR5 Efficacy (%) (10 µM) (TGR5): 24.4%

Cc1cnccc1C(=O)N(CC12CCC(c3ccc4c(c3)OCO4)(CC1)CC2)c1cc(Cl)cc(Cl)c1 [Compound 20n]
FXR Efficacy (%) (0.1 µM) (FXR): 73.5%
FXR Efficacy (%) (1 µM) (FXR): 98.9%
TGR5 Efficacy (%) (10 µM) (TGR5): 67.6%

COC(=O)/C=C/c1cccc(N(Cc2ccc(-c3ccc(N(C)C)cc3)cc2)C(=O)c2ccccc2)c1 [Compound 13d]
FXR Efficacy (%) (1 µM) (FXR): 24.5%
FXR Efficacy (%) (10 µM) (FXR): 88.9%
TGR5 Efficacy (%) (10 µM) (TGR5): 0.0%

Cc1cc(F)ccc1N(Cc1ccc(-c2ccc(N(C)C)cc2)cc1)C(=O)c1ccncc1 [Compound 13f]
FXR Efficacy (%) (1 µM) (FXR): 0.5%
TGR5 Efficacy (%) (10 µM) (TGR5): 32.0%

COC(=O)/C=C/c1cc(Cl)cc(N(Cc2ccc(-c3ccc(N(C)C)cc3)cc2)C(=O)c2ccncc2C)c1 [Compound 13m]
FXR Efficacy (%) (1 µM) (FXR): 72.5%
TGR5 Efficacy (%) (10 µM) (TGR5): 6.7%

COc1ccc([C@@H]2CC[C@@H](CN(C(=O)c3ccncc3C)c3cc(Cl)cc(Cl)c3)C(C)C2)cc1C (some centres unmarked) [Compound 20e]
FXR agonist activity (in words) (FXR): partial FXR agonists
FXR Efficacy (%) (1 µM) (FXR): 69.1%
FXR Efficacy (%) (10 µM) (FXR): 72.6%
TGR5 agonist activity (in words) (TGR5): weak TGR5 agonist
TGR5 Efficacy (%) (10 µM) (TGR5): 33.9%

COC(=O)/C=C/c1cccc(N(Cc2ccc(-c3ccc(N(C)C)cc3)cc2)C(=O)c2ccncc2C)c1C [Compound 13i]
FXR agonist activity (in words) (FXR): weak FXR/TGR5 dual agonist activity
FXR Efficacy (%) (1 µM) (FXR): 32.1%
TGR5 agonist activity (in words) (TGR5): weak FXR/TGR5 dual agonist activity
TGR5 Efficacy (%) (10 µM) (TGR5): 47.2%

COc1ccc(C23CCC(CN(C(=O)c4ccncc4C)c4cc(Cl)cc(Cl)c4)(CC2)CC3)cc1C [Compound 20f]
FXR agonist activity (in words) (FXR): partial FXR agonists
FXR Efficacy (%) (1 µM) (FXR): 90.3%
FXR Efficacy (%) (10 µM) (FXR): 64.3%
TGR5 agonist activity (in words) (TGR5): weak TGR5 agonist
TGR5 Efficacy (%) (10 µM) (TGR5): 28.8%

COc1ccc(C23CCC(CN(C(=O)c4ccncc4C)c4cc(Cl)cc(Cl)c4)(CC2)CC3)cc1Cl [Compound 20v]
FXR Efficacy (%) (0.1 µM) (FXR): 65.4%
FXR Efficacy (%) (1 µM) (FXR): 79.6%
TGR5 Efficacy (%) (1 µM) (TGR5): 33.5%

COC(=O)/C=C/c1cccc(N(Cc2ccc(-c3ccc(N(C)C)cc3)cc2)C(=O)c2ccncc2C)c1 [Compound 13a]
FXR agonist activity (in words) (FXR): strong FXR agonist activity with full efficacy
FXR Efficacy (%) (1 µM) (FXR): 24.6%
FXR Efficacy (%) (10 µM) (FXR): 100.2%
TGR5 agonist activity (in words) (TGR5): inactive against TGR5
TGR5 Efficacy (%) (10 µM) (TGR5): -3.1%

COc1cc(Cl)cc(N(CC23CCC(c4ccc5c(c4)OCO5)(CC2)CC3)C(=O)c2ccncc2C)c1 [Compound 20o]
FXR Efficacy (%) (0.1 µM) (FXR): 29.4%
FXR Efficacy (%) (1 µM) (FXR): 97.6%
TGR5 Efficacy (%) (1 µM) (TGR5): 36.0%
TGR5 Efficacy (%) (10 µM) (TGR5): 78.9%

CN(C)c1ccc(-c2ccc(CN(C(=O)c3ccnnc3)c3cc(Cl)cc(Cl)c3)cc2)cc1 [Compound 13ab]
FXR agonist activity (in words) (FXR): did not have any activity against either FXR or TGR5
FXR Efficacy (%) (1 µM) (FXR): 0.5%
TGR5 agonist activity (in words) (TGR5): did not have any activity against either FXR or TGR5
TGR5 Efficacy (%) (10 µM) (TGR5): -12%
